These results are taken from ChEMBL document CHEMBL3132838, “Synthesis of chromenoindole derivatives from Robinia pseudoacacia” (Medchemcomm, 2013).

Broadly, the IC50 is the point on the concentration scale where inhibition reaches its midpoint.

The test system of assay [1] is HCT-116. The experiment in a line: Cytotoxicity against human p53-positive HCT116 cells assessed as cell viability after 24 hrs by MTT assay. As to conditions: HCT-116, 24 h. The format is functional, cell-based. (In general: Tetrazolium assays rely on reduction of a dye to a coloured formazan, in cell work by metabolically active cells.)
The next assay deals with Steinernema feltiae. The assay is described as follows: Nematicidal activity against Steinernema feltiae assessed as viability up to 200 uM after 48 hrs by microscopic analysis. The format is functional.
Assay [2] deals with Radical scavenging activity. The assay is described as follows: Antioxidant activity assessed as DPPH radical scavenging activity. The format is functional.
For assay [3], the system named is HL-60. The assay is described as follows: Cytotoxicity against human HL60 cells assessed as cell survival at 40 uM after 72 hrs by MTT assay relative to control. To be noted: HL-60, 72 h, read-out: Survival. It counts as functional.
In assay [4] the test system is HL-60. The experiment in a line: Cytotoxicity against human HL60 cells assessed as cell survival at 200 uM after 72 hrs by MTT assay relative to control. It counts as functional. To be noted: HL-60, 72 h, read-out: Survival.
Assay [5] concerns HCT-116. The assay is described as follows: Cytotoxicity against human p53-positive HCT116 cells assessed as cell viability up to 100 uM after 24 hrs by MTT assay. The format is functional, cell-based.
Another assay deals with T1, Aromatase (Homo sapiens, UniProt P11511).
T1 sequence (P11511 whole entry): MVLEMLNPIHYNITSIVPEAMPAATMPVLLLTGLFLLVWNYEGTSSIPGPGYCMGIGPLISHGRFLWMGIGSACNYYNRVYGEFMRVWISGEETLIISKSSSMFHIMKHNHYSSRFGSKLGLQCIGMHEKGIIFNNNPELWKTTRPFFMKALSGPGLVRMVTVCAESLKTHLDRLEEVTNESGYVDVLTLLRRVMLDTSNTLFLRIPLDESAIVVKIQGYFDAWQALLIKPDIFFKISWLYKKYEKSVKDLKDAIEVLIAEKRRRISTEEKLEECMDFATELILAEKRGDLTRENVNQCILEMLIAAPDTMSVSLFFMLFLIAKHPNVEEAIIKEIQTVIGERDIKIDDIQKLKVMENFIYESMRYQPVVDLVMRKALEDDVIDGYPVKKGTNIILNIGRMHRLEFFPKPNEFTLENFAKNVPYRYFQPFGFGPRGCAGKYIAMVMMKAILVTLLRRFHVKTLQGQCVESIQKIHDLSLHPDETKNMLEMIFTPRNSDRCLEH
The experiment in a line: Inhibition of human placental aromatase.

Active and inactive are the calls of the source. The calls are words filed in the database; no cut-off is given here.

On to `COc1ccc2c3c([nH]c2c1)-c1ccc(O)cc1OC3`, for which the IC50 in the assay with HCT-116 [1] was determined as 66.1 µM.
For `COc1ccc2c(c1)N[C@H]1c3ccc(O)cc3OC[C@@H]21` (racemic), the result in the assay on Steinernema feltiae and with HCT-116 [5] was inactive. In addition, the concentration for half-maximal inhibition (IC50) (in assay [2]; on Aromatase) was greater than 300 µM throughout. Further, in the assay with HL-60 [3], the viability at 40 µM was determined as 72%. In addition, the viability at 200 µM in the assay on HL-60 [4] is 27%.
